This passage reports melting point results from US7928098B2, “Therapeutic and/or preventive agents for a sleep disorder” (Kyowa Hakko Kirin Co., Ltd., priority 2005, dated 2011).

A word on the melting point: it is the temperature of the solid-liquid transition. For `Cc1cccc(C(=O)c2sc(NC(=O)c3ccncc3)nc2-c2ccco2)n1` [Compound 192, N-[4-(2-Furyl)-5-(6-methylpyridin-2-ylcarbonyl)thiazol-2-yl]pyridine-4-carboxamide], the melting point was 238 to 241 °C. With `O=C(Nc1nc(-c2ccco2)c(C(=O)c2ccccn2)s1)OC1CCCC1` [Compound 160, Cyclopentyl N-[4-(2-furyl)-5-(pyridin-2-ylcarbonyl)thiazol-2-yl]carbamate] the figure was 162 to 163 °C; with `O=C(Nc1nc(-c2ccco2)c(C(=O)C2CCOCC2)s1)c1ccccc1OC(F)(F)F` [Compound 380, N-[4-(2-Furyl)-5-(tetrahydropyran-4-ylcarbonyl)thiazol-2-yl]-2-(trifluoromethoxy)benzamide], 131 to 134 °C; with `O=C(c1ccccn1)c1sc(NC(=O)C2CCOCC2)nc1-c1ccco1` [Compound 102, N-[4-(2-Furyl)-5-(pyridin-2-ylcarbonyl)thiazol-2-yl]tetrahydropyran-4-carboxamide], 234 to 235 °C. In the case of `O=C(Nc1nc(-c2ccco2)c(C(=O)c2nccs2)s1)c1ccncc1` [Compound 255, N-[4-(2-Furyl)-5-(thiazol-2-ylcarbonyl)thiazol-2-yl]pyridine-4-carboxamide], the melting point was 228 to 240 °C.

As for `COc1ccc(C(=O)Nc2nc(-c3ccco3)c(C(=O)C3CCOCC3)s2)c(OC)c1` [Compound 389, N-[4-(2-Furyl)-5-(tetrahydropyran-4-ylcarbonyl)thiazol-2-yl]-2,4-dimethoxybenzamide], the melting point lay within 219 to 222 °C.

For the compound `O=C(Nc1nc(-c2ccco2)c(C(=O)c2ccccn2)s1)OC1CCC1` [Compound 159, Cyclobutyl N-[4-(2-furyl)-5-(pyridin-2-ylcarbonyl)thiazol-2-yl]carbamate], the melting point was 152 to 153 °C. Under `CC1(C(=O)Nc2nc(-c3ccco3)c(C(=O)c3ccccn3)s2)CC1` [Compound 100, N-[4-(2-Furyl)-5-(pyridin-2-ylcarbonyl)thiazol-2-yl]-1-methylcyclopropanecarboxamide] stands 195 to 196 °C; under `O=C(Nc1nc(-c2ccco2)c(C(=O)C2CCOCC2)s1)c1cccs1` [Compound 422, N-[4-(2-Furyl)-5-(tetrahydropyran-4-ylcarbonyl)thiazol-2-yl]thiophene-2-carboxamide], 231 to 232 °C.

Consider `O=C(Nc1nc(-c2ccco2)c(C(=O)c2ccccn2)s1)c1ccc(Br)o1` [Compound 143, 5-Bromo-N-[4-(2-furyl)-5-(pyridin-2-ylcarbonyl)thiazol-2-yl]furan-2-carboxamide], for which the melting point was 211 to 212 °C. Under `O=C(c1ccccn1)c1sc(NC(=O)C2CCN(Cc3ccncc3)CC2)nc1-c1ccco1` [Compound 106, N-[4-(2-Furyl)-5-(pyridin-2-ylcarbonyl)thiazol-2-yl]-1-(pyridin-4-ylmethyl)piperidine-4-carboxamide] stands 240 to 241 °C; under `COc1ccc(C(=O)Nc2nc(-c3ccco3)c(C(=O)C3CCOCC3)s2)cc1` [Compound 368, N-[4-(2-Furyl)-5-(tetrahydropyran-4-ylcarbonyl)thiazol-2-yl]-4-methoxybenzamide], 184 to 188 °C; under `Cc1occc1C(=O)Nc1nc(-c2ccco2)c(C(=O)c2ccccn2)s1` [Compound 147, N-[4-(2-Furyl)-5-(pyridin-2-ylcarbonyl)thiazol-2-yl]-2-methylfuran-3-carboxamide], 183 to 186 °C. As for `Cc1cc(C(=O)Nc2nc(-c3ccco3)c(C(=O)c3ccccn3)s2)c(C)o1` [Compound 148, N-[4-(2-Furyl)-5-(pyridin-2-ylcarbonyl)thiazol-2-yl]-2,5-dimethylfuran-3-carboxamide], the melting point lay within 195 to 198 °C.

`C[C@@H]1CN(CC(=O)Nc2nc(-c3ccco3)c(C(=O)c3ccccn3)s2)C[C@H](C)O1` [Compound 173, 2-(cis-2,6-Dimethylmorpholino)-N-[4-(2-furyl)-5-(pyridin-2-ylcarbonyl)thiazol-2-yl]acetamide] registered a melting point of 188 to 191 °C. Take `O=C(Nc1nc(-c2ccco2)c(C(=O)c2cccnc2)s1)c1ccncc1` [Compound 211, N-[4-(2-Furyl)-5-(pyridin-3-ylcarbonyl)thiazol-2-yl]pyridine-4-carboxamide]: the melting point lay in the range of 245 to 248 °C.

Consider `CCCC(=O)Nc1nc(-c2ccco2)c(C(=O)c2ccccn2)s1` [Compound 97, N-[4-(2-Furyl)-5-(pyridin-2-ylcarbonyl)thiazol-2-yl]-butanamide], for which the melting point lay within 148 to 149 °C. Turning to `Cc1cc(C(=O)Nc2nc(-c3ccco3)c(C(=O)c3ccccn3)s2)no1` [Compound 151, N-[4-(2-Furyl)-5-(pyridin-2-ylcarbonyl)thiazol-2-yl]-5-methylisoxazole-3-carboxamide], the melting point lay in the range of 209 to 213 °C. Consider `COc1cccc(C(=O)Nc2nc(-c3ccco3)c(C(=O)c3ccccn3)s2)c1` [Compound 109, N-[4-(2-Furyl)-5-(pyridin-2-ylcarbonyl)thiazol-2-yl]-3-methoxybenzamide], for which the melting point fell in the range of 165 to 166 °C.

The compound `CC(C)(C)C(=O)c1sc(NC(=O)c2ccncc2)nc1-c1ccco1` [Compound 306, N-[4-(2-Furyl)-5-pivaloylthiazol-2-yl]pyridine-4-carboxamide] displayed a melting point of 240 to 245 °C.

On to `COc1cc(C(=O)Nc2nc(-c3ccco3)c(C(=O)c3ccccn3)s2)cc(OC)c1OC` [Compound 112, N-[4-(2-Furyl)-5-(pyridin-2-ylcarbonyl)thiazol-2-yl]-3,4,5-trimethoxybenzamide], for which the melting point is 172 to 180 °C (dec.). Compound `CC(C)(O)c1cc2cc(C(=O)Nc3nc(-c4ccco4)c(C(=O)c4ccccn4)s3)ccc2o1` [Compound 155, N-[4-(2-Furyl)-5-(pyridin-2-ylcarbonyl)thiazol-2-yl]-2-(1-hydroxy-1-methylethyl)-1-benzofuran-5-carboxamide] returned a melting point of 230 to 231 °C.

Regarding `Cn1c(-c2sc(NC(=O)c3ccccc3)nc2-c2ccco2)cc2ccccc21` [Compound 36, N-[4-(2-Furyl)-5-(1-methylindol-2-yl)thiazol-2-yl]benzamide], the melting point lay within 195 to 196 °C. With `O=C(Nc1nc(-c2ccco2)c(C(=O)c2ccncc2)s1)c1ccncc1` [Compound 236, N-[4-(2-Furyl)-5-(pyridin-4-ylcarbonyl)thiazol-2-yl]pyridine-4-carboxamide] the figure was 276 to 285 °C; with `O=C(Nc1nc(-c2ccco2)c(C(=O)C2CCOCC2)s1)c1cccc(Cl)c1` [Compound 375, 3-Chloro-N-[4-(2-furyl)-5-(tetrahydropyran-4-ylcarbonyl)-thiazol-2-yl]benzamide], 210 to 212 °C; with `O=C(Nc1nc(-c2ccco2)c(C(=O)c2ccco2)s1)c1ccncc1` [Compound 249, N-[4-(Furan-2-yl)-5-(furan-2-ylcarbonyl)thiazol-2-yl]pyridine-4-carboxamide], 245 to 248 °C. Under `CCn1ccc(C(=O)c2sc(NC(=O)c3ccncc3)nc2-c2ccco2)c1` [Compound 262, N-[5-(1-Ethylpyrrol-3-ylcarbonyl)-4-(2-furyl)thiazol-2-yl]pyridine-4-carboxamide] stands 127 to 134 °C; under `O=C(C=Cc1ccccc1)Nc1nc(-c2ccco2)c(C(=O)C2CCOCC2)s1` [Compound 433, N-[4-(2-Furyl)-5-(tetrahydropyran-4-ylcarbonyl)thiazol-2-yl]-3-phenylacrylamide], 253 to 256 °C; under `O=C(c1ccccn1)c1sc(NC(=O)N2CCOCC2)nc1-c1ccco1` [Compound 164, N-[4-(2-Furyl)-5-(pyridin-2-ylcarbonyl)thiazol-2-yl]morpholine-4-carboxamide], 144 to 145 °C. Regarding `CC(C)(O)C(=O)Nc1nc(-c2ccco2)c(C(=O)c2ccccc2)s1` [Compound 45, N-[5-Benzoyl-4-(2-furyl)thiazol-2-yl]-2-hydroxy-2-methylpropanamide], the melting point was in the range of 153 to 154 °C.

As for `O=C(Nc1nc(-c2ccco2)c(C(=O)c2cccnc2)s1)c1ccco1` [Compound 214, N-[4-(2-Furyl)-5-(pyridin-3-ylcarbonyl)thiazol-2-yl]furan-2-carboxamide], the melting point is 234 to 236 °C. Under `O=C(Nc1nc(-c2ccco2)c(C(=O)c2ccccn2)s1)c1cnc2occc2c1` [Compound 156, N-[4-(2-Furyl)-5-(pyridin-2-ylcarbonyl)thiazol-2-yl]-furo[2,3-b]pyridine-5-carboxamide] stands 234 to 235 °C. Turning to `O=C(Nc1nc(-c2ccco2)c(C(=O)C2CCOCC2)s1)c1ccc2c(c1)OC(F)(F)O2` [Compound 403, 2,2-Difluoro-N-[4-(2-furyl)-5-(tetrahydropyran-4-ylcarbonyl)thiazol-2-yl]-1,3-benzodioxol-5-carboxamide], the melting point was 124 to 129 °C.

With `O=C(Nc1nc(-c2ccco2)c(C(=O)C2CCOCC2)s1)c1ccccc1F` [Compound 371, 2-Fluoro-N-[4-(2-furyl)-5-(tetrahydropyran-4-ylcarbonyl)-thiazol-2-yl]benzamide], the melting point lay in the range of 172 to 176 °C.

In turn, `O=C(c1sc(NC(=O)C2CCCO2)nc1-c1ccco1)C1CCOCC1` (centres unmarked) [Compound 428, N-[4-(2-Furyl)-5-(tetrahydropyran-4-ylcarbonyl)thiazol-2-yl]tetrahydrofuran-2-carboxamide] had a melting point of 115 to 117 °C. Under `O=C(Nc1nc(-c2ccco2)c(C(=O)c2ccccn2)s1)c1ccc([N+](=O)[O-])o1` [Compound 144, N-[4-(2-Furyl)-5-(pyridin-2-ylcarbonyl)thiazol-2-yl]-5-nitrofuran-2-carboxamide] stands 278 to 283 °C (dec.); under `O=C(Nc1nc(-c2ccco2)c(C(=O)c2cnccn2)s1)c1ccncc1` [Compound 281, N-[4-(2-Furyl)-5-(pyrazin-2-ylcarbonyl)thiazol-2-yl]pyridine-4-carboxamide], greater than 300 °C. Under `Cn1ccc(C(=O)c2sc(NC(=O)c3ccncc3)nc2-c2ccco2)cc1=O` [Compound 274, N-[4-(2-Furyl)-5-(1-methyl-2-oxo-1,2-dihydropyridin-4-ylcarbonyl)thiazol-2-yl]pyridine-4-carboxamide] stands 243 to 255 °C (dec.).
